Experimental data: PubChem BioAssay (NCI)
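Protocol summary: plate cells (96-well), add compound at 5 concentrations, incubate 48 h, interpolate endpoints linearly. The concentration for full growth arrest is given as TGI.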

What was measured:
Assay in all cases: NCI-60 cell line screen, 48 h
[1] = test system: COLO 205 colon
[2] = test system: K-562 leukemia
[3] = test system: T-47D breast
[4] = test system: NCI-H23 lung
[5] = test system: HS 578T breast
[6] = test system: SK-MEL-5 melanoma
[7] = test system: MCF7 breast
[8] = test system: HL-60(TB) leukemia
[9] = test system: CCRF-CEM leukemia
[10] = test system: SR leukemia
[11] = test system: NCI/ADR-RES ovarian
[12] = test system: UACC-257 melanoma
[13] = test system: ACHN renal
[14] = test system: LOX IMVI melanoma
[15] = test system: SNB-19 CNS
[16] = test system: PC-3 prostate
[17] = test system: HOP-62 NSCLC
[18] = test system: A498 renal
[19] = test system: SF-539 CNS
[20] = test system: SN12C renal
[21] = test system: NCI-H522 lung
[22] = test system: HT29 colon
[23] = test system: SK-MEL-2 melanoma
[24] = test system: BT-549 breast
[25] = test system: HCT-116 colon
[26] = test system: UACC-62 melanoma
[27] = test system: A549 NSCLC
[28] = test system: M14 melanoma
[29] = test system: RXF 393 renal
[30] = test system: OVCAR-4 ovarian
[31] = test system: EKVX NSCLC
[32] = test system: HCC-2998 colon
[33] = test system: MALME-3M melanoma
[34] = test system: SK-OV-3 ovarian
[35] = test system: SF-295 CNS
[36] = test system: UO-31 renal
[37] = test system: SF-268 CNS
[38] = test system: OVCAR-3 ovarian
[39] = test system: MDA-N
[40] = test system: SK-MEL-28 melanoma
[41] = test system: MDA-MB-231 breast
[42] = test system: HOP-92 NSCLC
[43] = test system: IGROV1 ovarian
[44] = test system: RPMI-8226 leukemia
[45] = test system: SW-620 colon
[46] = test system: OVCAR-5 ovarian
[47] = test system: OVCAR-8 ovarian
[48] = test system: CAKI-1 renal
[49] = test system: KM12 colon
[50] = test system: NCI-H226 lung
[51] = test system: MOLT-4 leukemia
[52] = test system: HCT-15 colon
[53] = test system: DU-145 prostate
[54] = test system: NCI-H460 lung
[55] = test system: MDA-MB-435
[56] = test system: 786-0 renal
[57] = test system: U251 CNS
[58] = test system: TK-10 renal

For `CCOC(=O)CNC(=O)C(CSC(=O)N(O)c1ccc(Br)cc1)NC(=O)CCC(N)C(=O)OCC` (stereo not drawn), the TGI [1] was > 50 µM, the TGI [2] was > 50 µM and the TGI [3] was > 50 µM. For the same compound, the TGI [4] was > 50 µM, the TGI [5] was > 50 µM and the TGI [6] was > 50 µM. For the same compound, the TGI [7] was > 50 µM, the TGI [8] was 0.00622 µM and the TGI [9] was > 50 µM. The TGI [10] was > 50 µM, the TGI [11] was > 50 µM and the TGI [12] was > 50 µM. For the same compound, the TGI [13] was > 50 µM, the TGI [14] was > 50 µM and the TGI [15] was > 50 µM. For the same compound, the TGI [16] was > 50 µM, the TGI [17] was > 50 µM and the TGI [18] was > 50 µM. The TGI [19] was > 50 µM, the TGI [20] was > 50 µM and the TGI [21] was > 50 µM. The TGI [22] was > 50 µM, the TGI [23] was > 50 µM and the TGI [24] was > 50 µM. The TGI [25] was > 50 µM, the TGI [26] was > 50 µM and the TGI [27] was > 50 µM. The TGI [28] was > 50 µM, the TGI [29] was > 50 µM and the TGI [30] was > 50 µM. The TGI [31] was > 50 µM, the TGI [32] was > 50 µM and the TGI [33] was > 50 µM. The TGI [34] was > 50 µM, the TGI [35] was > 50 µM and the TGI [36] was > 50 µM. The TGI [37] was > 50 µM, the TGI [38] was > 50 µM and the TGI [39] was > 50 µM. The TGI [40] was > 50 µM, the TGI [41] was > 50 µM and the TGI [42] was > 50 µM. The TGI [43] was > 50 µM, the TGI [44] was > 50 µM and the TGI [45] was > 50 µM. The TGI [46] was > 50 µM, the TGI [47] was > 50 µM and the TGI [48] was > 50 µM. For the same compound, the TGI [49] was > 50 µM, the TGI [50] was > 50 µM and the TGI [51] was > 50 µM. The TGI [52] was > 50 µM, the TGI [53] was > 50 µM and the TGI [54] was > 50 µM. For the same compound, the TGI [55] was > 50 µM, the TGI [56] was > 50 µM and the TGI [57] was > 50 µM.
`O=C(O)CCC(=O)Nc1ccc2c(c1)S(=O)(=O)N(CC(=O)O)C2=O` was tested, and the TGI [1] was > 100 µM, the TGI [2] was > 100 µM and the TGI [3] was > 100 µM. For the same compound, the TGI [4] was > 100 µM, the TGI [5] was > 100 µM and the TGI [6] was > 100 µM. The TGI [7] was > 100 µM, the TGI [8] was > 100 µM and the TGI [9] was > 100 µM. For the same compound, the TGI [10] was > 100 µM, the TGI [11] was > 100 µM and the TGI [12] was > 100 µM. For the same compound, the TGI [13] was > 100 µM, the TGI [14] was > 100 µM and the TGI [15] was > 100 µM. For the same compound, the TGI [16] was > 100 µM, the TGI [17] was > 100 µM and the TGI [18] was > 100 µM. The TGI [19] was > 100 µM, the TGI [20] was > 100 µM and the TGI [21] was > 100 µM. For the same compound, the TGI [22] was > 100 µM, the TGI [23] was > 100 µM and the TGI [24] was > 100 µM. For the same compound, the TGI [25] was > 100 µM, the TGI [26] was > 100 µM and the TGI [27] was > 100 µM. The TGI [28] was > 100 µM, the TGI [30] was > 100 µM and the TGI [31] was > 100 µM. For the same compound, the TGI [32] was > 100 µM, the TGI [33] was > 100 µM and the TGI [34] was > 100 µM. The TGI [35] was > 100 µM, the TGI [36] was > 100 µM and the TGI [38] was > 100 µM. The TGI [39] was > 100 µM, the TGI [40] was > 100 µM and the TGI [41] was > 100 µM. The TGI [42] was > 100 µM, the TGI [43] was > 100 µM and the TGI [44] was > 100 µM. The TGI [45] was > 100 µM, the TGI [46] was > 100 µM and the TGI [47] was > 100 µM. For the same compound, the TGI [48] was > 100 µM, the TGI [49] was > 100 µM and the TGI [58] was > 100 µM. For the same compound, the TGI [50] was > 100 µM, the TGI [51] was > 100 µM and the TGI [52] was > 100 µM. The TGI [53] was > 100 µM, the TGI [54] was > 100 µM and the TGI [55] was > 100 µM. For the same compound, the TGI [56] was > 100 µM and the TGI [57] was > 100 µM.
